Assay [1] concerns the target T1, α-synuclein aggregate (Homo sapiens, UniProt P37840). In words: Binding to α-synuclein aggregate versus tau aggregate (inventors' finding, no method given).
Assay [2] relates to aggregate of tau or amyloid-β formed in the brain of the AD patient. In words: In vitro fluorescence microscope measurement, AD patient brain sections. The class given is binding, human. The conditions noted are these: AD and DLB patient brain sections, 30 μM.
From the text: Postmortem human brains were obtained from autopsies carried out with respect to a dementia with Lewy bodies (DLB) and Alzheimer's disease (AD) patients. Moreover, an AD brain tissue was fixed in 10% neutral buffered formalin, embedded in a paraffin block, and sliced with a thickness of 6 μm. Postfixed fresh frozen sections of the amygdala tissue of the DLB patient and formalin fixed, paraffin embedded sections of a deparaffinized middle frontal gyrus tissue of the AD patient were used. Thirty μM of each of the above compounds and brain sections were incubated in a 50% ethanol solution for 30 minutes at room temperature. The sections were then washed twice, i.e., washed with a 50% ethanol solution for 5 minutes and with ultrapure water for 3 minutes. After mounting the sections using a mounting medium ([sequence] H-1000, Vector Laboratories), images of lesion-enriched areas on the sections were obtained using a fluorescence microscope (DM4000, Leica). Analysis software (Image J) was used to quantify the fluorescence of lesion-enriched and lesion-free (background) areas.
In assay [3] the target is T2, α-synuclein aggregate formed in the brain of the DLB patient (Homo sapiens, UniProt P37840).
T2 construct: Postfixed fresh frozen sections of the amygdala tissue of the DLB patient; from tissue; host or cells: post-mortem human DLB amygdala, frozen sections
In words: In vitro fluorescence microscope measurement, DLB patient brain sections. The conditions noted are these: for binding to the α-synuclein aggregate formed in the brain of the DLB patient, reactivity relative to PBB3: 30 μM compound, 50% ethanol, 30 minutes, room temperature, amygdala sections. Type of assay: binding. The source says: Postmortem human brains were obtained from autopsies carried out with respect to a dementia with Lewy bodies (DLB) and Alzheimer's disease (AD) patients.
A frozen DLB tissue was sliced with a thickness of 20 μm in a cryostat (HM560, Carl Zeiss).
Postfixed fresh frozen sections of the amygdala tissue of the DLB patient and formalin fixed, paraffin embedded sections of a deparaffinized middle frontal gyrus tissue of the AD patient were used. Thirty μM of each of the above compounds and brain sections were incubated in a 50% ethanol solution for 30 minutes at room temperature. The sections were then washed twice, i.e., washed with a 50% ethanol solution for 5 minutes and with ultrapure water for 3 minutes. After mounting the sections using a mounting medium (VECTASHIELD H-1000, Vector Laboratories), images of lesion-enriched areas on the sections were obtained using a fluorescence microscope (DM4000, Leica). Analysis software (Image J) was used to quantify the fluorescence of lesion-enriched and lesion-free (background) areas.

The target in assay [4] is T3, α-synuclein lesions (Mus musculus, UniProt O55042).
T3 construct: from tissue; host or cells: brain of C57BL/6 mice inoculated in the striatum with recombinant murine α-synuclein fibrils (made in E. coli)
In words: Ex vivo imaging of α-synuclein fibril-injected model mouse brain. Type of assay: in vivo. The conditions noted are these: 1.66 mg/kg; brains collected 90 minutes after C05-05 or 120 minutes after BF-227. The method, then: A model mouse at 6 weeks after the injection of the α-synuclein fiber solution was anesthetized with 1.5% (v/v) isoflurane in a manner similar to that described in “(Preparation of α-synuclein fibril-injected mouse model)” above, and C05-05 (1.66 mg/kg) or BF-227 (1.66 mg/kg) was intraperitoneally administered.
The brains were collected and frozen 90 minutes after the administration of C05-05 (or 120 minutes after the administration of BF-227), and frozen sections with the thickness of 20 μm were prepared in a cryostat (HM560). After mounting the sections using a mounting medium (VECTASHIELD H-1000), images of α-synuclein aggregate-enriched areas on the sections were obtained using a fluorescence microscope (DM4000).
Moreover, the same sections were immersed and fixed overnight in a phosphate buffer solution containing 4% paraformaldehyde. The brain after fixation was washed under running water and then treated with an autoclave for the antigen retrieval. Immunohistochemical staining with an anti-phosphorylated α-synuclein monoclonal antibody (pS129, abcam, ab59264) (1:1000) was carried out, and after mounting the sections using a mounting medium (VECTASHIELD H-1000), images of the same areas were obtained using the fluorescence microscope (DM4000). FIG. 7(a) contains images showing the case where C05-05 was administered, and FIG. 7(b) is images showing the case where BF-227 was administered.

Assay [5] has as its target T3, α-synuclein lesions. In words: In vivo two-photon laser scanning fluorescence microscopy of α-synuclein fibril-injected model mouse. The conditions noted are these: tail vein, 50 μl of 0.05% solution; 90 minutes after C05-05 or 30 minutes after PBB3. On the procedure: Note that the α-synuclein aggregate was inoculated into the striatum of the mouse with the following manner. First, hair on the head of 9-week-old C57BL/6 male mouse anesthetized with 1.5% (v/v) isoflurane was removed, and the scalp was disinfected with isodine, followed by application of xylocaine and incision in the scalp to expose the skull. Then, a hole was drilled in the skull at a position of 0.05 mm posterior to the bregma and 2 mm lateral to the midline, and 3 μl of an α-synuclein fiber solution (murine α-synuclein fiber (4 mg/ml) in saline) was injected into a position […] ventral to the brain surface using a glass pipette, and then the scalp was returned and sutured.
A model mouse was anesthetized with 1.5% (v/v) isoflurane 6 weeks after the injection of the α-synuclein fiber solution, and a cranial window was provided according to the Seylaz-Tomita method (Tomita et al. J Cereb Blood Flow Metab 25, 858-67, 2005). The mouse was anesthetized with 1.5% (v/v) isoflurane 2 weeks after the generation of the cranial window, and 50 μl of a solution of DMSO/physiological saline water=1:1 containing 0.05% of C05-05 or PBB3 was administered via the tail vein. The mouse was fixed under a two-photon laser fluorescence microscope 90 minutes after administration of C05-05 or 30 minutes after administration of PBB3, and 100 μl of a saline solution containing 5 mM of Sulforhodamine 101 was administered intraperitoneally, followed by intravital two-photon fluorescence imaging at an excitation wavelength of 900 nm. The detection wavelengths for C05-05 and PBB3 were set at 500 nm to 550 nm, and detection wavelengths for Sulforhodamine 101 were set at 573 nm to 648 nm.

For assay [6], the target named is T1, α-synuclein aggregate. The conditions noted are these: background art, cited from earlier work.

Like-named read-outs stand apart in the source and are kept apart here.

Take `CNc1ccc(/C=C/C=C/c2nc3ccc(OCC(O)C[18F])cc3s2)cn1` (centres unmarked) [1-(18)F-fluoro-3-(2-((1E,3E)-4-(6-(methylamino)pyridin-3-yl)buta-1,3-dienyl)benzo[d]thiazol-6-yloxy)propan-2-ol]: at α-synuclein aggregate [1], the “binding selectivity for the α-synuclein aggregate compared with a tau aggregate” value (from here on “binding selectivity … with a tau aggregate”) is listed as “higher binding selectivity for an aggregate of tau proteins than to an α-synuclein aggregate”.

As to `CNc1ccc(/C=C/C=C/c2nc3ccc(OCC(O)CF)cc3s2)cn1` (centres unmarked) [1-fluoro-3-(2-((1E,3E)-4-(6-(methylamino)pyridin-3-yl)buta-1,3-dienyl)benzo[d]thiazol-6-yloxy)propan-2-ol], at α-synuclein aggregate [1], the “binding selectivity … with a tau aggregate” value is recorded as “higher binding selectivity for an aggregate of tau proteins than to an α-synuclein aggregate”.

In the case of `[11CH3]Nc1ccc(/C=C/C=C/c2nc3ccc(O)cc3s2)cn1` [2-((1E,3E)-4-(6-((11)C-methylamino)pyridin-3-yl)buta-1,3-dienyl)benzo[d]thiazol-6-ol], at α-synuclein aggregate [1], the “binding selectivity … with a tau aggregate” value is reported as “higher binding selectivity for an aggregate of tau proteins than to an α-synuclein aggregate”.

On to `CN(C)c1ncc(/C=C/c2nc3ccc(OCCF)cc3o2)s1` [BF-227, 2-(2-[2-dimethylaminothiazol-5-yl]ethenyl)-6-5 (2-[fluoro]ethoxy)benzoxazole, reference compound], for which the aggregate mainly bound result in assay [2] is recorded as “mainly bound to the amyloid-β aggregate of AD”. For the same compound, the “binding to the α-synuclein aggregate relative to the compounds represented by the formula (I)” value in assay [3] (30 μM, DLB patient brain sections) is “weaker than the compounds represented by the formula (I)”. Besides, on α-synuclein lesions [4], the “detection of α-synuclein lesions by ex vivo imaging” value was “no lesion was detected”.

Turning to `CNc1ccc(C#C/C=C/c2nc3ccc(O)cc3s2)c(F)n1` [C05-01, (E)-2-(4-(2-fluoro-6-(methylamino)pyridin-3-yl)but-1-en-3-ynyl)benzo[d]thiazol-6-ol], the “binding to the α-synuclein aggregate formed in the brain of the DLB patient, reactivity relative to PBB3” value (“binding … reactivity relative to PBB3” for short) in assay [3] is reported as “reactivity equal to or greater than that of PBB3”.

Regarding `CNc1ccc(C#C/C=C/c2nc3ccc(CN)cc3s2)cn1` [C05-02, (E)-5-(4-(6-(aminomethyl)benzo[d]thiazol-2-yl)but-3-en-1-ynyl)-N-methylpyridine-2-amine], in assay [3], the “binding … reactivity relative to PBB3” value is “reactivity equal to or greater than that of PBB3”.

`CNc1ccc(C#C/C=C/c2nc3ccc(O)cc3s2)cn1` [C05-03, (E)-2-(4-(6-(methylamino)pyridin-3-yl)but-1-en-3-ynyl)benzo[d]thiazol-6-ol]: the “binding … reactivity relative to PBB3” value in assay [3] is on record as “reactivity equal to or greater than that of PBB3”.

With `CNc1ccc(C#C/C=C/c2nc3ccc(OC)cc3s2)c(F)n1` [C05-04], the “binding … reactivity relative to PBB3” value in assay [3] is reported as “reactivity equal to or greater than that of PBB3”.

As for `CN(C)c1ccc(C#C/C=C/c2nc3ccc(O)cc3s2)cc1` [C05-08, (E)-2-(4-(4-(dimethylamino)phenyl)but-1-en-3-ynyl)benzo[d]thiazol-6-ol], the “binding … reactivity relative to PBB3” value in assay [3] was “reactivity equal to or greater than that of PBB3”.

For `CNc1ccc(C#C/C=C/c2nc3ccc(O)cc3s2)cc1` [C05-09, (E)-2-(4-(4-(methylamino)phenyl)but-1-en-3-ynyl)benzo[d]thiazol-6-ol], the “binding … reactivity relative to PBB3” value in assay [3] is given as “reactivity equal to or greater than that of PBB3”.

Consider `CNc1ccc(C#C/C=C/c2cc3cc(O)ccc3o2)c(F)n1` [C06-02], for which, in assay [3], the “binding … reactivity relative to PBB3” value is reported as “reactivity equal to or greater than that of PBB3”.

Consider `CNc1ccc(/C=C/C=C/c2nc3ccc(O)cc3s2)cn1` [PBB3, 2-((1E,3E)-4-(6-(methylamino)pyridin-3-yl)buta-1,3-dienyl)benzo[d]thiazol-6-ol], for which, on α-synuclein aggregate [1], the “binding selectivity … with a tau aggregate” value is recorded as “lower binding selectivity for the α-synuclein aggregate as compared with its binding selectivity for a tau aggregate” and the “binding to the α-synuclein aggregate” value is “some degree of affinity”. Also, the “binding selectivity … with a tau aggregate” value on α-synuclein aggregate [1] (listed as 2-((1E,3E)-4-(6-(methylamino)pyridin-3-yl)buta-1,3-dienyl)benzo[d]thiazol-6-ol) was “higher binding selectivity for an aggregate of tau proteins than to an α-synuclein aggregate”. The “detection of α-synuclein lesions by intravital two-photon fluorescence imaging” value at α-synuclein lesions [5] is recorded as “no lesion was detected”.

In the case of `CN([11CH3])c1ncc(/C=C/c2nc3ccc(OCCF)cc3o2)s1` [[^11C]BF-227], on α-synuclein aggregate [6] (binds to an amyloid-β aggregate), the “binding selectivity for the α-synuclein aggregate” value is reported as “low”. On α-synuclein aggregate [6], the “binding affinity for the α-synuclein aggregate” value is “insufficient” and the “detection of α-synuclein lesions in patients by PET” value is “only in a subset of MSA patients”.

The values above are taken from US20250339405A1, “a-SYNUCLEIN AGGREGATE BINDING AGENT AND IMAGING METHOD” (National Institutes for quantum and Radiological Science …, priority 2019, published 2025).
